Target: Voltage-dependent L-type calcium channel subunit alpha-1C (Cavia porcellus)
Experiment: Displacement of [3H](+)-PN200-110 binding to calcium channels in guinea pig cardiac membranes.

Q: How did the Ki turn out when CCOC(=O)C1=C(C)N=C(C)C(C(=O)OCC)C1c1c(C)noc1CCc1ccccc1-c1ccccc1 (stereo not drawn) [4-[5-(2-Biphenyl-2-yl-ethyl)-3-methyl-isoxazol-4-yl]-2,6-dimethyl-1,4-dihydro-pyridine-3,5-dicarboxylic acid diethyl ester] was run?
A: Its Ki is 91 nM.

Q: With CCOC(=O)C1=C(C)N=C(C)C(C(=O)OCC)C1c1c(C)noc1CCc1ccc2ccccc2c1 (stereo not drawn) [2,6-Dimethyl-4-[3-methyl-5-(2-naphthalen-2-yl-ethyl)-isoxazol-4-yl]-1,4-dihydro-pyridine-3,5-dicarboxylic acid diethyl ester] as the compound, how does the Ki read?
A: The Ki was 20 nM.

Q: How did the Ki turn out when CCOC(=O)C1=C(C)N=C(C)C(C(=O)OCC)C1c1c(C)noc1CCc1cccc2ccccc12 (stereo not drawn) [2,6-Dimethyl-4-[3-methyl-5-(2-naphthalen-1-yl-ethyl)-isoxazol-4-yl]-1,4-dihydro-pyridine-3,5-dicarboxylic acid diethyl ester] was run?
A: Its Ki is 4.1 nM.

Source: BindingDB's records for doi:10.1021/jm980439q (State University of New York, 1999)
